Assay [1] relates to arginine kinase. Nature of the assay: Michaelis constant Km of uridine triphosphate synthesis using arginine kinase. Type of assay: biochemical, Toxoplasma gondii. The settings on record: uridine diphosphate as substrate, ω-phosphono-L-arginine as phosphate donor. As to the method: Arginine kinase aqueous solution (D4-1-3) was obtained in a similar manner as in Preparation 1, except that a “gene encoding the amino acid sequence of SEQ ID NO: 9 derived from Toxoplasma gondii” was used in place of the “gene encoding the amino acid sequence of SEQ ID NO: 1 derived from Streptococcus equisimilis”.
The tube was allowed to stand at 30° C. for 3 minutes in a constant temperature water bath. To the tube was added 100 μL of temperature-adjusted (30° C.) substrate solution [2-1] (a solution obtained by dissolving sodium uridine diphosphate to a concentration of 10 mM in buffer solution B). Thereby, enzyme reaction solution (IV-2-1) was obtained. A portion (100 μL) of (IV-2-1) was extracted immediately after preparation and at 1-minute intervals. The extracted portions were heated at 100° C. for 2 minutes to stop the enzyme reaction, and centrifuged using a centrifuge (4° C., 12,000×g, 10 min) to precipitate impurities. The supernatant (80 μL) was analyzed by HPLC, and the peak areas of uridine triphosphate were recorded.
A Hanes-Woolf plot was constructed using the calculated initial enzyme reaction velocity v, with the horizontal axis (x-axis) plotting each substrate concentration [S], and the vertical axis (y-axis) plotting the […] of the initial enzyme reaction velocity at each substrate concentration. […]

Assay [2] concerns the target T1, chondroitin synthase (Pasteurella multocida, UniProt Q9CMP0).
T1 construct: FLAG; made in house; host or cells: Escherichia coli SURE, as in Preparation 1
Nature of the assay: Inhibitory concentration IC50 against chondroitin synthase. Type of assay: biochemical. As for the experimental part:
Hyaluronan synthase aqueous solution (B-1) obtained in Preparation 1 was dissolved to a concentration of 1.5 U/mL in 940 μL of aqueous solution 1 (50 mM phosphate buffer (pH of 7.5, 25° C.) containing 5 mM magnesium chloride and 0.05 mM sodium uridine diphosphate) in a 1.5 mL-tube. The tube was allowed to stand at 40° C. for 20 minutes in a constant temperature water bath. To the tube was added 50 μL of temperature-adjusted (40° C.) substrate solution [1-1] (a solution obtained by dissolving uridine diphosphate-glucuronic acid sodium salt and uridine diphosphate-N-acetylglucosamine both to a concentration of 20 mM in buffer solution B (50 mM phosphate buffer, pH of 7.5, 25° C.)). Thereby, enzyme reaction solution (I-1) was obtained. […] The supernatant (80 μL) was analyzed by HPLC under the following conditions, and the peak areas of hyaluronan were recorded. […]
The inhibitory concentration IC50 was measured in a similar manner as in “Measurement of the inhibitory concentration IC50 against hyaluronan synthase”, except that “chondroitin synthase aqueous solution (B-2) obtained in Preparation 11” was used in place of “hyaluronan synthase aqueous solution (B-1) obtained in Preparation 1”, “substrate solution [1-2] […]
The inhibitory concentration IC50 was also determined in a similar manner, except that the amount of chondroitin synthase aqueous solution (B-2) was changed from 1.5 U/mL to 45 U/mL.

SMILES strings stand for the structures.

In general, Km refers to the concentration of substrate that gives half-maximal velocity. The IC50 is the concentration at which inhibition is half-maximal. Lower therefore signals inhibition by little substance. Consider `O=c1ccn([C@@H]2O[C@H](COP(=O)(O)OP(=O)(O)O)[C@@H](O)[C@H]2O)c(=O)[nH]1` [uridine diphosphate], for which the Km in assay [1] amounted to 710 µM. Also, the concentration for half-maximal inhibition (IC50) in assay [2] is 85 µM.

The record behind these values is US9670514B2, “Method for producing polysaccharide” (SANYO CHEMICAL INDUSTRIES, LTD., priority 2011, dated 2017).
